Values quoted from earlier work in patent US5648564A, “Process for the formation, isolation and purification of comestible xanthophyll crystals from plants” (Kemin Industries, Inc., priority 1995, dated 1997).

How the values were obtained:
rat = settings: oral
[1] = consumption of lutein and zeaxanthin (reported jointly)

ClC(Cl)Cl [Chloroform]
LD50 (rat): 2.18 mL/kg

CCOC(C)=O [Ethyl Acetate]
LD50 (rat): 11.3 mL/kg

CC(O)CO (stereo not drawn) [Propylene Glycol, 1,2-propanediol]
LD50 (rat): 25 mL/kg

c1ccncc1 [Pyridine]
LD50 (rat): 1.58 mL/kg

CC1=C[C@H](O)CC(C)(C)[C@H]1/C=C/C(C)=C/C=C/C(C)=C/C=C/C=C(C)/C=C/C=C(C)/C=C/C1=C(C)C[C@@H](O)CC1(C)C [lutein]
reduction in age-related macular degeneration [1]: 40%

CC1=C(/C=C/C(C)=C/C=C/C(C)=C/C=C/C=C(C)/C=C/C=C(C)/C=C/C2=C(C)C[C@@H](O)CC2(C)C)C(C)(C)C[C@H](O)C1 [zeaxanthin]
reduction in age-related macular degeneration [1]: 40%
